Measurements reported in PubChem BioAssay (NCI).
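Values below derive from 48-hour exposures of cells grown in 96-well plates, with endpoints linearly interpolated between the two concentrations bracketing the appropriate inhibition level. TGI denotes the concentration required for complete inhibition of growth.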

Columns and labels:
Assay in all cases: inhibition of tumour cell growth, NCI panel, 48 h
NCI/ADR-RES ovarian = tested on: NCI/ADR-RES ovarian
SF-539 CNS = tested on: SF-539 CNS
OVCAR-3 ovarian = tested on: OVCAR-3 ovarian
UO-31 renal = tested on: UO-31 renal
SK-MEL-5 melanoma = tested on: SK-MEL-5 melanoma
HT29 colon = tested on: HT29 colon
HCT-116 colon = tested on: HCT-116 colon
ACHN renal = tested on: ACHN renal
MCF7 breast = tested on: MCF7 breast
SK-OV-3 ovarian = tested on: SK-OV-3 ovarian
NCI-H23 lung = tested on: NCI-H23 lung

| SMILES | TGI (NCI/ADR-RES ovarian) | TGI (SF-539 CNS) | TGI (OVCAR-3 ovarian) | TGI (UO-31 renal) | TGI (SK-MEL-5 melanoma) | TGI (HT29 colon) | TGI (HCT-116 colon) | TGI (ACHN renal) | TGI (MCF7 breast) | TGI (SK-OV-3 ovarian) | TGI (NCI-H23 lung) |
| --- | --- | --- | --- | --- | --- | --- | --- | --- | --- | --- | --- |
| C=C(Br)C(Cl)(CBr)CCC(Br)C(C)(C)Cl (stereo not given) | > 10 µM | > 10 µM | > 10 µM | > 10 µM | > 10 µM | > 10 µM | > 10 µM | > 10 µM | > 10 µM | > 10 µM | > 10 µM |
| COC(=O)CC1(O)C(C=C(C)C)C(C(=O)OC)C(=O)C(C(=O)OC)C1C(=O)OC (stereo not given) | > 100 µM | > 100 µM | > 100 µM | > 100 µM | > 100 µM | > 100 µM | > 100 µM | > 100 µM | > 100 µM | > 100 µM | > 100 µM |
| C/C=C/[C@@H]1O[C@H](CC#C[Si](C)(C)C)[C@@]2(C=O)C(C)=CC[C@H](C(C)C)[C@@H]12 | 71 µM | 49.7 µM | 42.4 µM | 3.53 µM | 35.2 µM | 46.2 µM | 36.9 µM | 39.9 µM | 63.1 µM | > 100 µM | 49.6 µM |
| C(/C=N/NC1=NCCN1)=N\NC1=NCCN1 | > 100 µM | > 100 µM | > 100 µM | > 100 µM | > 100 µM | > 100 µM | > 100 µM | > 100 µM | > 100 µM | > 100 µM | > 100 µM |
| O=C(O)c1cc2c(cc1S(=O)(=O)O)C1C(C3C2C2(Cl)C(Cl)=C(Cl)C3(Cl)C2(Cl)Cl)C2(Cl)C(Cl)=C(Cl)C1(Cl)C2(Cl)Cl (stereo not given) | > 100 µM | 60.3 µM | > 100 µM | > 100 µM | > 100 µM | 48 µM | 32.3 µM | > 100 µM | > 100 µM | > 100 µM | 73.3 µM |
| CCOC(=O)NNC1(SC)NC(=O)c2c(cc(Cl)oc2=O)O1 (stereo not given) | 25.7 µM | 4.57 µM | 10.9 µM | 3.35 µM | > 45.5 µM | 5.26 µM | 3.08 µM | 4.79 µM | 5.84 µM | 26.8 µM | 13.1 µM |
| CC1(C)N=C(N)N=C(N)N1c1ccc(CCCCc2ccc(Cl)cc2Cl)cc1 | > 100 µM | 8.74 µM | 5.5 µM | 43.9 µM | 2.84 µM | 13 µM | 15.1 µM | 16.1 µM | 11.8 µM | 24.7 µM | 11.9 µM |
| COc1ccccc1/C=C1/Sc2scc(CC(=O)Nc3ccccc3)[n+]2C1=O | 59.9 µM | > 100 µM | 43.4 µM | 70.7 µM | 36 µM | > 100 µM | > 100 µM | > 100 µM | > 100 µM | 71.7 µM | > 100 µM |
| CCOC(=O)c1cc2cc(CSc3ccccc3)ccc2oc1=O | > 100 µM | > 100 µM | > 100 µM | > 100 µM | > 100 µM | > 100 µM | > 100 µM | > 100 µM | > 100 µM | > 100 µM | > 100 µM |
| CC(C)(N=NC(C)(C)C1=NCCN1)C1=NCCN1 | > 100 µM | > 100 µM | > 100 µM | > 100 µM | > 100 µM | > 100 µM | > 100 µM | > 100 µM | > 100 µM | > 100 µM | > 100 µM |
| Cc1ccnc2c1c(=O)c1ccccc1n2C | > 100 µM | > 100 µM | > 100 µM | 36.5 µM | 47.2 µM | 85.2 µM | > 100 µM | 56.8 µM | > 100 µM | > 100 µM | > 100 µM |
| CNC(=O)CNC(=O)CCC(=O)N(C)C | > 100 µM | > 100 µM | > 100 µM | > 100 µM | > 100 µM | > 100 µM | > 100 µM | > 100 µM | > 100 µM | > 100 µM | > 100 µM |
| OCC1CCCCN1Cc1nc2ccc(Cl)cc2[nH]1 (stereo not given) | > 100 µM | > 100 µM | > 100 µM | > 100 µM | > 100 µM | > 100 µM | > 100 µM | > 100 µM | > 100 µM | > 100 µM | > 100 µM |
| CCC(/C=C/c1ccccc1)=N\NC(=S)N/N=C(/C=C/c1ccccc1)CC | > 100 µM | 91.6 µM | > 100 µM | > 100 µM | > 100 µM | > 100 µM | > 100 µM | > 100 µM | > 100 µM | > 100 µM | > 100 µM |
| CCOC(=O)CC[C@@H](NC(=O)c1ccc(NCc2ccc3nc(OC)c(OC)nc3c2)cc1)C(=O)OCC | > 100 µM | 45.8 µM | 38.3 µM | > 65.4 µM | 27.9 µM | > 100 µM | > 100 µM | 58.2 µM | > 31.6 µM | > 100 µM | > 100 µM |
